The source of these data is patent publication US10851083B2, “Benzoimidazoles as prolyl hydroxylase inhibitors” (Janssen Pharmaceutica NV, priority 2008, dated 2020).

In one assay the target is human PHD2181-417 (Homo sapiens (Human), UniProt Q9GZT9). In words: PHD2 enzyme activity assay ([14C]-succinic acid production).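 Further: reaction ran 10 min with compound in Tris pH 7.5 buffer with catalase, DTT and ascorbate, labelled succinate freed of leftover 2-oxoglutarate by DNP precipitation, then beta counted.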 The settings on record: PHD2181-417 polypeptide, HIF-1α peptide 10 μM, [5-14C]-2-oxoglutaric acid; 30 min pre-incubation; tested 10 μM to 3 nM. In kind it is biochemical.
human PHD2181-417, sequence (Q9GZT9 181-417): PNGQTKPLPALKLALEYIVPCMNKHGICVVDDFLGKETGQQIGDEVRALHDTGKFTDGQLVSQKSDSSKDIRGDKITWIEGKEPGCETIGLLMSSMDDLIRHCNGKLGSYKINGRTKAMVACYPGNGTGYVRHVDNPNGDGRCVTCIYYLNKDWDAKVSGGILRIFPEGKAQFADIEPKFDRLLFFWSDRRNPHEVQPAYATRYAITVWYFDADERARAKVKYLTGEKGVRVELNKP
Another assay relates to Hep-3B cells. In words: Cellular assay: EPO secretion in Hep-3B cells. In kind it is cell-based, human. The settings on record: Homo sapiens, Hep3B, 24 h, EPO secretion as percentage of control compound 7-[(4-Chloro-phenyl)-(5-methyl-isoxazol-3-ylamino)-methyl]-quinolin-8-ol, read-out: Cellular % EPO Stimulation. Also noted: EPO secretion, % of control compound: dose or concentration left out as unconfirmed.

For `Cc1cc(C)c(CS(=O)(=O)c2cc3nc(-n4cc(C(=O)O)cn4)[nH]c3cc2Cl)c(C)c1` [Example 90, 1-[6-Chloro-5-(2,4,6-trimethyl-phenylmethanesulfonyl)-1H-benzoimidazol-2-yl]-1H-pyrazole-4-carboxylic Acid], on human PHD2181-417, the “Enzyme pIC50” value came to 7.3. For the same compound, in the assay on Hep-3B cells, the EPO secretion, % of control compound is 8.25%.
In the case of `COc1ccc(CS(=O)(=O)c2cc3nc(-n4cc(C(=O)O)cn4)[nH]c3cc2Cl)cc1` [Example 91, 1-[6-Chloro-5-(4-methoxy-phenylmethanesulfonyl)-1H-benzoimidazol-2-yl]-1H-pyrazole-4-carboxylic Acid], the “Enzyme pIC50” value on human PHD2181-417 amounted to 7.7. The EPO secretion, % of control compound with Hep-3B cells came out at 22%.
For `O=C(O)c1cnn(-c2nc3cc(S(=O)(=O)Cc4ccc(F)cc4)c(Cl)cc3[nH]2)c1` [Example 92, 1-[6-Chloro-5-(4-fluoro-phenylmethanesulfonyl)-1H-benzoimidazol-2-yl]-1H-pyrazole-4-carboxylic Acid] the same measures were 7.5 and 61.2%.
In the case of `O=C(O)c1cnn(-c2nc3cc(S(=O)(=O)Cc4ccccc4Cl)c(Cl)cc3[nH]2)c1` [Example 93, 1-[6-Chloro-5-(2-chloro-phenylmethanesulfonyl)-1H-benzoimidazol-2-yl]-1H-pyrazole-4-carboxylic Acid], on human PHD2181-417, the “Enzyme pIC50” value is recorded as 7.5. Besides, the EPO secretion, % of control compound with Hep-3B cells worked out at 78.5%.
For `O=C(O)c1cnn(-c2nc3cc(S(=O)(=O)CCc4ccccc4)c(Cl)cc3[nH]2)c1` [Example 94, 1-[6-Chloro-5-(2-phenyl-ethanesulfonyl)-1H-benzoimidazol-2-yl]-1H-pyrazole-4-carboxylic Acid] the same measures were 7.4 and 65.1%.
Taken in the same sequence, the figures for `CC[S+]([O-])c1cc2[nH]c(-n3cc(C(=O)O)cn3)nc2cc1Cl` (stereo not drawn) [Example 95, 1-(5-Chloro-6-ethanesulfinyl-1H-benzoimidazol-2-yl)-1H-pyrazole-4-carboxylic Acid] were 7.2 and 46.3%.
`CCS(=O)(=O)c1cc2[nH]c(-n3cc(C(=O)O)cn3)nc2cc1Cl` [Example 96, 1-(5-Chloro-6-ethanesulfonyl-1H-benzoimidazol-2-yl)-1H-pyrazole-4-carboxylic Acid]: at human PHD2181-417, the “Enzyme pIC50” value is listed as 7.4. Further, in the assay on Hep-3B cells, the EPO secretion, % of control compound was determined as 67%.
For `CS(=O)(=O)c1cc2[nH]c(-n3cc(C(=O)O)cn3)nc2cc1C(F)(F)F` [Example 97, 1-(6-Methanesulfonyl-5-trifluoromethyl-1H-benzoimidazol-2-yl)-1H-pyrazole-4-carboxylic Acid] the same measures were 7.6 and 75.9%.
For `CS(=O)(=O)c1cc2[nH]c(-n3cc(C(=O)O)cn3)nc2cc1F` [Example 98, 1-(5-Fluoro-6-methanesulfonyl-1H-benzoimidazol-2-yl)-1H-pyrazole-4-carboxylic Acid] the same measures were 7.3 and 41.4%.
For `CS(=O)(=O)c1cc2[nH]c(-n3cc(C(=O)O)cn3)nc2cc1Cl` [Example 99, 1-(5-Chloro-6-methanesulfonyl-1H-benzoimidazol-2-yl)-1H-pyrazole-4-carboxylic Acid] the same measures were 7.4 and 34.9%.
For the compound `CS(=O)(=O)c1cc2[nH]c(-n3cc(C(=O)O)cn3)nc2cc1OC(F)(F)F` [Example 100, 1-(6-Methanesulfonyl-5-trifluoromethoxy-1H-benzoimidazol-2-yl)-1H-pyrazole-4-carboxylic Acid], on human PHD2181-417, the “Enzyme pIC50” value was determined as 7.5. Further, in the assay with Hep-3B cells, the EPO secretion, % of control compound is 50.2%.
Taken in the same sequence, the figures for `CC(C)S(=O)(=O)c1cc2[nH]c(-n3cc(C(=O)O)cn3)nc2cc1Cl` [Example 101, 1-[5-Chloro-6-(propane-2-sulfonyl)-1H-benzoimidazol-2-yl]-1H-pyrazole-4-carboxylic Acid] were 7.3 and 62.2%.
